Source: ChEMBL document CHEMBL3351793, “Orally bioavailable factor Xa inhibitors containing alpha-substituted gem-dimethyl P4 moieties” (Bioorg Med Chem Lett, 2014)

What was measured:
[1] = target: Coagulation factor X (Homo sapiens, UniProt P00742); experiment: Inhibition of purified human factor Xa
[2] = Apparent permeability from apical to basolateral side of the human Caco2 cells; assay type: ADME, cell-based; conditions: caco-2
[3] = system: Plasma; experiment: Anticoagulant activity in human plasma assessed as concentration required to double prothrombin time; assay type: functional
[4] = Clearance in dog at 0.5 mg/kg, iv and 0.2 mg/kg, po administered as cassette dosing; assay type: ADME, organism-based, Canis lupus familiaris; conditions: in vivo
[5] = Volume of distribution at steady state in dog at 0.5 mg/kg, iv and 0.2 mg/kg, po administered as cassette dosing; assay type: ADME, organism-based, Canis lupus familiaris; conditions: in vivo, read-out: Vdss
[6] = Half life in dog at 0.2 mg/kg, po administered as cassette dosing; assay type: ADME, organism-based, Canis lupus familiaris; design: dose 0.2 mg/kg, route oral; conditions: in vivo
[7] = Oral bioavailability in dog at 0.2 mg/kg administered as cassette dosing; assay type: ADME, organism-based, Canis lupus familiaris; conditions: in vivo
[8] = target: Trypsin (Homo sapiens, UniProt P07477+P07478+P35030); experiment: Inhibition of human trypsin; assay type: protein assay
[9] = target: Prothrombin (Homo sapiens, UniProt P00734); experiment: Inhibition of human thrombin
[10] = target: Plasma kallikrein (Homo sapiens, UniProt P03952); experiment: Inhibition of human plasma kallikrein
[11] = Inhibition of human chymotrypsin
[12] = target: Vitamin K-dependent protein C (Homo sapiens, UniProt P04070); experiment: Inhibition of human activated protein C
[13] = target: Coagulation factor IX (Homo sapiens, UniProt P00740); experiment: Inhibition of human factor 9a
[14] = Inhibition of human factor 7a
[15] = target: Coagulation factor XI (Homo sapiens, UniProt P03951); experiment: Inhibition of human factor 11a
[16] = target: Urokinase-type plasminogen activator (Homo sapiens, UniProt P00749); experiment: Inhibition of human urokinase
[17] = target: Tissue-type plasminogen activator (Homo sapiens, UniProt P00750); experiment: Inhibition of human tissue plasminogen activator
Tissue-type plasminogen activator, sequence (P00750 whole entry): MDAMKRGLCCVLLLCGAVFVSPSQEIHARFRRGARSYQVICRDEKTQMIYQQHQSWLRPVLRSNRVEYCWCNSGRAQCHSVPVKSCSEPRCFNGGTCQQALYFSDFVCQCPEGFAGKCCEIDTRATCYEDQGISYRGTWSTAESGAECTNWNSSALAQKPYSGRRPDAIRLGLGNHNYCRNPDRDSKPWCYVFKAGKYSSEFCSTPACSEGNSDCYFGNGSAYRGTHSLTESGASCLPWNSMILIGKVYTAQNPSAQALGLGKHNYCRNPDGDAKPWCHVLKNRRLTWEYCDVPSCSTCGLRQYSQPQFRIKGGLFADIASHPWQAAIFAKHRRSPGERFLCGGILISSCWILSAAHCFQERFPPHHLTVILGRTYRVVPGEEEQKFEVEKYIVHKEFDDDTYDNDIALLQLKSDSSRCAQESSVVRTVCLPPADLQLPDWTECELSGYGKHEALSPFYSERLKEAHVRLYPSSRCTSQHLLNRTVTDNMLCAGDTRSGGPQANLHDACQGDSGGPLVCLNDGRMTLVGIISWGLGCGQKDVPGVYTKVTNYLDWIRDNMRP

Coagulation factor X, sequence (P00742 41-179 limits assumed): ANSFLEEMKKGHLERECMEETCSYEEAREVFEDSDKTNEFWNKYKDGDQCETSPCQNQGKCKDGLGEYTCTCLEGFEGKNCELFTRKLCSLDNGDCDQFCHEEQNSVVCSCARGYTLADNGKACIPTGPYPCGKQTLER
Coagulation factor X, sequence (P00742 235-488 limits assumed): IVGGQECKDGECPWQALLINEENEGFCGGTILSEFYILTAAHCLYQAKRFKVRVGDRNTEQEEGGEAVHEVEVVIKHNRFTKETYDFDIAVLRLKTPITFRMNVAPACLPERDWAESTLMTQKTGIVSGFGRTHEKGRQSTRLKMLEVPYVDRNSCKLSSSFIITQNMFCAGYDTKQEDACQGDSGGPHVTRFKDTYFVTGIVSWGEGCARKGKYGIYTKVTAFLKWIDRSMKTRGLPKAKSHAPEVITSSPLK
Plasma kallikrein, sequence (P03952 20-390 limits assumed): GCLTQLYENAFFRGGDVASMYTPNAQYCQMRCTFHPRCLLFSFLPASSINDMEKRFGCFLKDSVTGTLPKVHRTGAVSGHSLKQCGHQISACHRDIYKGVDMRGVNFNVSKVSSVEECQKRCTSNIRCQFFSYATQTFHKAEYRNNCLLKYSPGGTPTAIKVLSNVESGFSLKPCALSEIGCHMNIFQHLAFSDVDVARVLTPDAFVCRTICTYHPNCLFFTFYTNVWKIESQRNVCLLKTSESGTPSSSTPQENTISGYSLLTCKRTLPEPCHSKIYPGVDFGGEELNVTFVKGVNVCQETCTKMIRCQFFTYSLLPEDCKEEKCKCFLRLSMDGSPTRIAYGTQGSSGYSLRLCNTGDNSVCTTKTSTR
Plasma kallikrein, sequence (P03952 391-638 limits assumed): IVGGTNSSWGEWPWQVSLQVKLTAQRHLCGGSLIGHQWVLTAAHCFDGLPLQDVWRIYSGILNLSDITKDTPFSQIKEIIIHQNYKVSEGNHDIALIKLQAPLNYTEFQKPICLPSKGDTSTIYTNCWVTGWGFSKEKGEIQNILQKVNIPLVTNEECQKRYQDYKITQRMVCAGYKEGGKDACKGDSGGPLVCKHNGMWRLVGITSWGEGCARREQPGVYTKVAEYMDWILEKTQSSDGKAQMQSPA
Coagulation factor XI, sequence (P03951 19-387 limits assumed): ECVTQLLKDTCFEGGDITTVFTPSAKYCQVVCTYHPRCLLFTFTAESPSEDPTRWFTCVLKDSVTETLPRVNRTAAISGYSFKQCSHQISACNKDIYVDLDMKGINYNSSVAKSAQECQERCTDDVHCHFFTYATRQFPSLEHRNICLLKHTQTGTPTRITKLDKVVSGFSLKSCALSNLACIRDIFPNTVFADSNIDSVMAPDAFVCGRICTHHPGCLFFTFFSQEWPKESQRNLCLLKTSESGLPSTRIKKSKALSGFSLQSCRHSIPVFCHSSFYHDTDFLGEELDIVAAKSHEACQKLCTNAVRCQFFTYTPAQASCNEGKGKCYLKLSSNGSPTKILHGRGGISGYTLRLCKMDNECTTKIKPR
Coagulation factor XI, sequence (P03951 388-625 limits assumed): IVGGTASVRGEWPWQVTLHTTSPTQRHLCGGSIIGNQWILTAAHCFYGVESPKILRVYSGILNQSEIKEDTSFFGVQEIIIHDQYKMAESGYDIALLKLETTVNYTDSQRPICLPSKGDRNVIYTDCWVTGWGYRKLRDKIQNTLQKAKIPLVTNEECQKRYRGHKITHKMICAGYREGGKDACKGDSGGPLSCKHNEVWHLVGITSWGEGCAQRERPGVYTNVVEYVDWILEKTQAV
Vitamin K-dependent protein C, sequence (P04070 43-197 limits assumed): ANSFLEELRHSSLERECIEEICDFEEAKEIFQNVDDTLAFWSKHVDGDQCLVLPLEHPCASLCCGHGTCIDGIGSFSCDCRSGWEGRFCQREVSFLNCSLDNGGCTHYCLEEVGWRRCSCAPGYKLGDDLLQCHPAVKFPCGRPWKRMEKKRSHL
Vitamin K-dependent protein C, sequence (P04070 212-461 limits assumed): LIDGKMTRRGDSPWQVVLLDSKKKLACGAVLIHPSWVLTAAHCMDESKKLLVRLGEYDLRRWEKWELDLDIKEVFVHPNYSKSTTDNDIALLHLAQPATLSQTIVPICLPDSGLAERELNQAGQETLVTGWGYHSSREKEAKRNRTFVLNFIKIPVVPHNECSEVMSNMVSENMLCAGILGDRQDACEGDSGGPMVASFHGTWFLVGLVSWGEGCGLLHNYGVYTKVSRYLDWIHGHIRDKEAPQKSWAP
Coagulation factor IX, sequence (P00740 47-191 limits assumed): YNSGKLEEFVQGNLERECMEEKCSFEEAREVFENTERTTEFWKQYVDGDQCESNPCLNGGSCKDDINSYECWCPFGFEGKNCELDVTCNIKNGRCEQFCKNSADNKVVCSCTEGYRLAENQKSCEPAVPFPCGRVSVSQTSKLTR
Coagulation factor IX, sequence (P00740 227-461 limits assumed): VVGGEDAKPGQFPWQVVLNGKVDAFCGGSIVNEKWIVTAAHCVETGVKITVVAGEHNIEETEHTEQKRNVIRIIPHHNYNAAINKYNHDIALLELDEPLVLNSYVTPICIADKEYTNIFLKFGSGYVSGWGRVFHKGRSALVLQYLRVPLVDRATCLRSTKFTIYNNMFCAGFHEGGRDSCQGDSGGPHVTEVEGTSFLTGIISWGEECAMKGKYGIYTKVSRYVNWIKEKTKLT

Row | Ki [1] [nM] | Papp [2] [×10⁻⁶ cm/s] | clearance [4] [mL/min/kg] | Vd [5] [L/kg] | half-life [6] [h] | bioavailability [7] [%] | Structure (SMILES) | Activity [3] [µM] | other results
1 | 1.22 | 18 |  |  |  |  | COc1ccc(-n2nc(C(N)=O)c3c2C(=O)N(c2ccc(C(C)(C)C#N)cc2)CC3)cc1 | 3.4 | 
2 | 9.27 |  |  |  |  |  | COc1ccc(-n2nc(C(N)=O)c3c2C(=O)N(c2ccc(C(C)(C)O)cc2)CC3)cc1 |  | 
3 | 0.66 | 5.8 | 16.3 | 3.02 | 4.95 | 50 | COc1ccc(-n2nc(C(N)=O)c3c2C(=O)N(c2ccc(C(C)(C)CO)cc2)CC3)cc1 | 3.8 | Ki [8]: > 15000 nM; Ki [9]: 2580 nM; Ki [10]: > 11000 nM; Ki [11]: > 40000 nM; Ki [12]: > 37600 nM; Ki [13]: > 15000 nM; Ki [14]: > 15000 nM; Ki [15]: > 15000 nM; Ki [16]: > 13000 nM; Ki [17]: > 43000 nM
4 | 0.11 | 4.1 | 64.3 | 7.3 | 1.86 | 34 | COc1ccc(-n2nc(S(C)(=O)=O)c3c2C(=O)N(c2ccc(C(C)(C)CN(C)C)cc2)CC3)cc1 | 0.67 | 
5 | 0.2 | 1.1 |  |  |  |  | COc1ccc(-n2nc(C(N)=O)c3c2C(=O)N(c2ccc(C(C)(C)N(C)C)cc2)CC3)cc1 | 0.96 | 
6 | 0.15 | 0.7 | 56 | 11.8 | 3.33 | 44 | COc1ccc(-n2nc(C(N)=O)c3c2C(=O)N(c2ccc(C(C)(C)CN)cc2)CC3)cc1 | 0.69 | 
7 | 0.07 | 5.9 | 84 | 6.57 | 1.04 | 41 | COc1ccc(-n2nc(C(N)=O)c3c2C(=O)N(c2ccc(C(C)(C)CN(C)C)cc2)CC3)cc1 | 0.45 | 

Continued, molecule first:

Row | Structure (SMILES) | Ki [1] [nM] | Papp [2] [×10⁻⁶ cm/s] | clearance [4] [mL/min/kg] | Vd [5] [L/kg] | half-life [6] [h] | bioavailability [7] [%] | Activity [3] [µM] | other results
8 | COc1ccc(-n2nc(C(N)=O)c3c2C(=O)N(c2ccc(C(C)(C)CN4CCCCC4=O)cc2)CC3)cc1 | 1.5 | 8.3 |  |  |  |  | 7.4 | 
9 | COc1ccc(-n2nc(C(N)=O)c3c2C(=O)N(c2ccc(C(C)(C)CNC4CC4)cc2)CC3)cc1 | 0.05 | 2.8 |  |  |  |  | 0.68 | 
10 | COc1ccc(-n2nc(C(N)=O)c3c2C(=O)N(c2ccc(C(C)(C)N4CCCC4)cc2)CC3)cc1 | 0.07 | 1.7 | 127 | 12 |  |  | 0.81 | 
11 | COc1ccc(-n2nc(S(C)(=O)=O)c3c2C(=O)N(c2ccc(C(C)(C)CO)cc2)CC3)cc1 | 1.01 | 3.6 |  |  |  |  | 3.9 | 
12 | COc1ccc(-n2nc(C(N)=O)c3c2C(=O)N(c2ccc(C(C)(C)CN4CCCC4)cc2)CC3)cc1 | 0.05 | 5.6 |  |  |  |  | 0.73 | 
13 | COc1ccc(-n2nc(S(C)(=O)=O)c3c2C(=O)N(c2ccc(C(C)(C)CN4CCCC4)cc2)CC3)cc1 | 0.24 | 4.3 | 36.7 | 5.5 | 1.4 | 10 | 0.92 | 
14 | COc1ccc(-n2nc(C(N)=O)c3c2C(=O)N(c2ccc(C(C)(C)S(C)(=O)=O)cc2)CC3)cc1 | 0.48 | 1 | 5.33 | 0.51 | 1.7 | 79 | 3.9 | 
15 | COc1ccc(-n2nc(C(N)=O)c3c2C(=O)N(c2ccc(N4CCCCC4=O)cc2)CC3)cc1 [APIXABAN] |  |  | 0.333 | 0.2 |  |  |  | 
16 | COc1ccc(-n2nc(S(C)(=O)=O)c3c2C(=O)N(c2ccc(C(C)(C)CN4CCOCC4)cc2)CC3)cc1 | 0.32 | 17 | 21.3 | 10.1 | 4.18 | 13 | 3.7 | 
17 | COc1ccc(-n2nc(C(N)=O)c3c2C(=O)N(c2ccc(C(C)(C)CN4CCOCC4)cc2)CC3)cc1 | 0.06 | 17 | 29.3 | 5.01 | 2.8 | 10 | 3.8 | 
